Data reported in ChEMBL document CHEMBL1128630, “Alkoxy substituted benzisothiazolone (BIT) derivatives: potent inhibitors of human leukocyte elastase” (Bioorg Med Chem Lett, 1995).

Assay: Half life measured in vitro for its stability in human blood
Assay type: ADME, tissue-based
Work on COc1cc(OC)c2c(c1)S(=O)(=O)N(COC(=O)c1c(Cl)cccc1Cl)C2=O yielded a half-life of 30 min.
For COc1ccc2c(c1)S(=O)(=O)N(COC(=O)c1c(Cl)cccc1Cl)C2=O, the half-life was 5 min.
With CCOc1cc(OCC)c2c(c1)S(=O)(=O)N(COC(=O)c1c(Cl)cccc1Cl)C2=O the half-life was 98 min.
CCOc1cccc2c1C(=O)N(COC(=O)c1c(Cl)cccc1Cl)S2(=O)=O gave a half-life of 10 min.
